Series [1] in a line: Thermodynamic stability assessed as change in melting temperature by CD spectroscopy relative to TBA. The series is classed as physicochemical.
The subject of series [2] is Plasma. Put plainly: Anticoagulant activity in human plasma assessed prothrombin time in presence of 1.5 fold complementary sequence of TBA. The series is classed as functional, cell-free.
A short description of series [3]: Stability in 50% human plasma assessed as compound degradation at 50 uM measured within 3 hrs by PAGE analysis relative to TBA. It counts as ADME, cell-free.
The test system of series [4] is Plasma. Kind of series: Anticoagulant activity in human plasma assessed prothrombin time at 0.25 to 1 uM. It counts as functional. Particulars: dose 0.25-1 µM.
Series [5] is described as follows: Stability in 50% human plasma assessed as compound degradation at 50 uM measured within 3 hrs by PAGE analysis. It counts as ADME, cell-free.
For series [6], the system named is Rattus norvegicus. Kind of series: Anticoagulant activity in ferric chloride-induced Sprague-Dawley rat carotid thrombosis model assessed as reduction in thrombus formation by measuring thrombus area at […], iv by H and E staining based analysis. Also noted: scale not given: the % may be the effect or the level left. The series is classed as functional.
Series [7] relates to Plasma. Put plainly: Anticoagulant activity in human plasma assessed prothrombin time in presence of complementary sequence of TBA. It counts as functional, cell-free.

Activity calls are given as the source filed them. No cut-off for these calls is given here.

`Cc1cn([C@H]2C[C@H](OP(=O)(O)OC[C@H]3O[C@@H](n4c(C(F)(F)F)nc5c(=O)[nH]c(N)nc54)C[C@@H]3OP(=O)(O)OC[C@H]3O[C@@H](n4cnc5c(=O)[nH]c(N)nc54)C[C@@H]3OP(=O)(O)OC[C@H]3O[C@@H](n4cc(C)c(=O)[nH]c4=O)C[C@@H]3OP(=O)(O)OC[C@H]3O[C@@H](n4cnc5c(=O)[nH]c(N)nc54)C[C@@H]3OP(=O)(O)OC[C@H]3O[C@@H](n4cc(C)c(=O)[nH]c4=O)C[C@@H]3OP(=O)(O)OC[C@H]3O[C@@H](n4c(C(F)(F)F)nc5c(=O)[nH]c(N)nc54)C[C@@H]3OP(=O)(O)OC[C@H]3O[C@@H](n4cnc5c(=O)[nH]c(N)nc54)C[C@@H]3OP(=O)(O)OC[C@H]3O[C@@H](n4cc(C)c(=O)[nH]c4=O)C[C@@H]3OP(=O)(O)OC[C@H]3O[C@@H](n4cc(C)c(=O)[nH]c4=O)C[C@@H]3OP(=O)(O)OC[C@H]3O[C@@H](n4c(C(F)(F)F)nc5c(=O)[nH]c(N)nc54)C[C@@H]3OP(=O)(O)OC[C@H]3O[C@@H](n4cnc5c(=O)[nH]c(N)nc54)C[C@@H]3O)[C@@H](COP(=O)(O)O[C@H]3C[C@H](n4cc(C)c(=O)[nH]c4=O)O[C@@H]3COP(=O)(O)O[C@H]3C[C@H](n4cnc5c(=O)[nH]c(N)nc54)O[C@@H]3COP(=O)(O)O[C@H]3C[C@H](n4c(C(F)(F)F)nc5c(=O)[nH]c(N)nc54)O[C@@H]3COP(=O)(O)O)O2)c(=O)[nH]c1=O`: the deltaTm in series [1] came out at 30 °C. For the same molecule, the result in series [2] was Active. Moreover, the Stabilty result in series [3] is on record as “Stable”; in series [5], “Unstable”. The PT in series [4] is given as 18.6 s.
As to `Cc1cn([C@H]2C[C@H](OP(=O)(O)OC[C@H]3O[C@@H](n4cnc5c(=O)[nH]c(N)nc54)C[C@@H]3OP(=O)(O)OC[C@H]3O[C@@H](n4cnc5c(=O)[nH]c(N)nc54)C[C@@H]3OP(=O)(O)OC[C@H]3O[C@@H](n4cc(C)c(=O)[nH]c4=O)C[C@@H]3OP(=O)(O)OC[C@H]3O[C@@H](n4cnc5c(=O)[nH]c(N)nc54)C[C@@H]3OP(=O)(O)OC[C@H]3O[C@@H](n4cc(C)c(=O)[nH]c4=O)C[C@@H]3OP(=O)(O)OC[C@H]3O[C@@H](n4cnc5c(=O)[nH]c(N)nc54)C[C@@H]3OP(=O)(O)OC[C@H]3O[C@@H](n4cnc5c(=O)[nH]c(N)nc54)C[C@@H]3OP(=O)(O)OC[C@H]3O[C@@H](n4cc(C)c(=O)[nH]c4=O)C[C@@H]3OP(=O)(O)OC[C@H]3O[C@@H](n4cc(C)c(=O)[nH]c4=O)C[C@@H]3OP(=O)(O)OC[C@H]3O[C@@H](n4c(C(F)(F)F)nc5c(=O)[nH]c(N)nc54)C[C@@H]3OP(=O)(O)OC[C@H]3O[C@@H](n4cnc5c(=O)[nH]c(N)nc54)C[C@@H]3O)[C@@H](COP(=O)(O)O[C@H]3C[C@H](n4cc(C)c(=O)[nH]c4=O)O[C@@H]3COP(=O)(O)O[C@H]3C[C@H](n4cnc5c(=O)[nH]c(N)nc54)O[C@@H]3COP(=O)(O)O[C@H]3C[C@H](n4cnc5c(=O)[nH]c(N)nc54)O[C@@H]3COP(=O)(O)O)O2)c(=O)[nH]c1=O`, the Activity in series [6] turned out to be 60%. For the same molecule, the deltaTm in series [1] is 7.6 °C. In addition, the outcome in series [2] and in series [7] was inactive. This molecule returned a PT in series [4] of 29.1 s. In series [5], the Stabilty result was “Unstable”.
Regarding `Cc1cn([C@H]2C[C@H](OP(=O)(O)OC[C@H]3O[C@@H](n4c(C(F)(F)F)nc5c(=O)[nH]c(N)nc54)C[C@@H]3OP(=O)(O)OC[C@H]3O[C@@H](n4cnc5c(=O)[nH]c(N)nc54)C[C@@H]3OP(=O)(O)OC[C@H]3O[C@@H](n4cc(C)c(=O)[nH]c4=O)C[C@@H]3OP(=O)(O)OC[C@H]3O[C@@H](n4cnc5c(=O)[nH]c(N)nc54)C[C@@H]3OP(=O)(O)OC[C@H]3O[C@@H](n4cc(C)c(=O)[nH]c4=O)C[C@@H]3OP(=O)(O)OC[C@H]3O[C@@H](n4cnc5c(=O)[nH]c(N)nc54)C[C@@H]3OP(=O)(O)OC[C@H]3O[C@@H](n4cnc5c(=O)[nH]c(N)nc54)C[C@@H]3OP(=O)(O)OC[C@H]3O[C@@H](n4cc(C)c(=O)[nH]c4=O)C[C@@H]3OP(=O)(O)OC[C@H]3O[C@@H](n4cc(C)c(=O)[nH]c4=O)C[C@@H]3OP(=O)(O)OC[C@H]3O[C@@H](n4c(C(F)(F)F)nc5c(=O)[nH]c(N)nc54)C[C@@H]3OP(=O)(O)OC[C@H]3O[C@@H](n4cnc5c(=O)[nH]c(N)nc54)C[C@@H]3O)[C@@H](COP(=O)(O)O[C@H]3C[C@H](n4cc(C)c(=O)[nH]c4=O)O[C@@H]3COP(=O)(O)O[C@H]3C[C@H](n4cnc5c(=O)[nH]c(N)nc54)O[C@@H]3COP(=O)(O)O[C@H]3C[C@H](n4cnc5c(=O)[nH]c(N)nc54)O[C@@H]3COP(=O)(O)O)O2)c(=O)[nH]c1=O`, the deltaTm in series [1] came out at 16.8 °C. Further, the outcome in series [2] and in series [7] was inactive. Besides, the figures for the Stabilty result in series [3] and in series [5] were “Stable” and “Unstable”, respectively. In series [4], this molecule yielded a PT of 26.7 s.

These data come from ChEMBL document CHEMBL4765467, “Improving Thermodynamic Stability and Anticoagulant Activity of a Thrombin Binding Aptamer by Incorporation of 8-trifluoromethyl-2'-deoxyguanosine” (J Med Chem, 2021).
